According to ChEMBL document CHEMBL4808216, “Gut-Restricted Selective Cyclooxygenase-2 (COX-2) Inhibitors for Chemoprevention of Colorectal Cancer” (J Med Chem, 2021):
Values after ≈ are worked out from the molar mass of the structure shown. Active and inactive are the calls of the source. No cut-off for these calls is given here.

Assays:
[1] = biological target: T1, Prostaglandin G/H synthase 2 (Homo sapiens, UniProt P35354); experiment: Inhibition of COX2 (unknown origin) expressed in HEK293 TRex cells assessed as reduction in PGE2 production using arachidonic acid as substrate preincubated for 60 mins followed by substrate addition for 1 hr in presence of 10% FBS by RapidFire High-Throughput Mass Spectrometry; assay type: cell-based, HEK293-T-REx
T1 sequence (P35354 whole entry): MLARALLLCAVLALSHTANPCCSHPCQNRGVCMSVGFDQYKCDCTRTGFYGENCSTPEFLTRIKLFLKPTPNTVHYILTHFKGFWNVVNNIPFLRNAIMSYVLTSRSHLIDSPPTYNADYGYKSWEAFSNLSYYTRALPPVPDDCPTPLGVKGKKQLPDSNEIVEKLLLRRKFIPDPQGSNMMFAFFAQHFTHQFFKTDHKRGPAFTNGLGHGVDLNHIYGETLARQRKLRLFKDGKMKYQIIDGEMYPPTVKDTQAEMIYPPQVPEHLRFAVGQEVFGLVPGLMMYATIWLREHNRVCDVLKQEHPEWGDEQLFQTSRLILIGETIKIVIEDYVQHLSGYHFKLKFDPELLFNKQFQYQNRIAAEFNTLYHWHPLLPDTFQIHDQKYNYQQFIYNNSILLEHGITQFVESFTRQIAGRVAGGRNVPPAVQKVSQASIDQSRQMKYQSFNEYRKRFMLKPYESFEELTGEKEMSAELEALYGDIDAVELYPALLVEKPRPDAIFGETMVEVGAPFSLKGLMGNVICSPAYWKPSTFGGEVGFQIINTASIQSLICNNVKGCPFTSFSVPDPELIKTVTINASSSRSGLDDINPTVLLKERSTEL

[2] = biological target: T2, Prostaglandin G/H synthase 1 (Homo sapiens, UniProt P23219); experiment: Inhibition of human recombinant COX-1 assessed as reduction in peroxidase activity using arachidonic acid as substrate preincubated for 60 mins followed by substrate addition for 2 secs by ADPH based fluorometric analysis; assay type: ADME
[3] = biological target: T1, Prostaglandin G/H synthase 2; experiment: Inhibition of human recombinant COX-2 assessed as reduction in peroxidase activity using arachidonic acid as substrate preincubated for 60 mins followed by substrate addition for 2 secs by ADPH based fluorometric analysis
[4] = biological target: T2, Prostaglandin G/H synthase 1; experiment: Inhibition of COX1 (unknown origin) expressed in HEK293 TRex cells assessed as reduction in PGE2 production using arachidonic acid as substrate preincubated for 60 mins followed by substrate addition for 1 hr in presence of 10% FBS by RapidFire High-Throughput Mass Spectrometry; assay type: ADME, cell-based, HEK293-T-REx
[5] = Half life in human liver microsomes; assay type: ADME, Microsome
[6] = Half life in mouse liver microsomes; assay type: ADME, Microsome
[7] = Half life in human hepatocytes; assay type: ADME, cell-based, Hepatocyte
[8] = Half life in mouse hepatocytes; assay type: ADME, cell-based, Hepatocyte
[9] = Clearance in C57BL/6J mouse at 2 mg/kg, iv measured after 0.08 to 24 hrs; assay type: ADME, organism-based; conditions: in vivo, time 0.08-24 hrs
[10] = Volume of distribution at steady state in C57BL/6J mouse at 2 mg/kg, iv measured after 0.08 to 24 hrs; assay type: ADME, organism-based; conditions: C57BL/6J, in vivo, time 0.08-24 hrs, read-out: Vdss
[11] = Drug concentration in C57BL/6J mouse colon at 10 mg/kg, po administered as cassette dose measured at 4 hrs by LC/MS/MS analysis; assay type: ADME, organism-based; conditions: read-out: Ct
[12] = Drug concentration in C57BL/6J mouse plasma at 10 mg/kg, po administered as cassette dose measured at 4 hrs by LC/MS/MS analysis; assay type: ADME, organism-based
[13] = Ratio of drug concentration in C57BL/6J mouse colon to plasma at 10 mg/kg, po measured after 4 hr by liquid chromatographic triple-quadrupole mass spectrometric method; assay type: ADME, organism-based; conditions: C57BL/6J, colon / plasma
[14] = Tmax in C57BL/6J mouse at 10 mg/kg, po administered as cassette dose measured at 4 hrs by liquid chromatographic triple-quadrupole mass spectrometric method; assay type: ADME, organism-based; conditions: in vivo
[15] = biological target: T1, Prostaglandin G/H synthase 2; experiment: Inhibition of human recombinant COX-2 using arachidonic acid as substrate preincubated for 60 mins followed by substrate addition for 2 secs by ADPH based fluorometric analysis
[16] = biological target: T2, Prostaglandin G/H synthase 1; experiment: Inhibition of COX1 in human whole blood assessed as reduction in calcium ionophore-stimulated TXB2 production incubated for 1 hr by ELISA; assay type: tissue-based
[17] = Protein binding in human plasma assessed as unbound fraction; assay type: ADME, cell-free
[18] = Equilibrium solubility of compound in FASSIF at pH 6.5; assay type: physicochemical
[19] = Drug concentration in C57BL/6J mouse portal vein plasma at 10 mg/kg, po administered as cassette dose measured at 4 hrs by LC/MS/MS analysis; assay type: ADME, organism-based
[20] = system: Mus musculus; experiment: Chemo-protective activity in C57BL/6J mouse model of spontaneous GI-tract tumor Apc-min assessed as 18F-FDG uptake in ileum at 300 mg/kg, po incorporated into chow diet administered daily for 2 weeks and measured after 14 days by ex vivo PET imaging analysis relative to control; assay type: functional
[21] = system: Mus musculus; experiment: Antitumor activity in C57BL/6J mouse model of spontaneous GI-tract tumor Apc-min assessed as reduction in total ileum polyp area at 300 mg/kg, po administered as suspension for 10 to 12 weeks; assay type: functional; conditions: time 10-12 weeks, read-out: TGI
[22] = system: Mus musculus; experiment: Antitumor activity in C57BL/6J mouse model of spontaneous GI-tract tumor Apc-min assessed as mouse survival at 30 mg/kg, po administered daily as suspension and measured at day 82 by Kaplan-Meier method; assay type: functional
[23] = Oral bioavailability in C57BL/6J mouse at 10 mg/kg measured up to 24 hrs by LC-MS analysis; assay type: ADME, organism-based; conditions: in vivo
[24] = Oral bioavailability in Sprague Dawley rat at 10 mg/kg measured up to 24 hrs by LC-MS analysis; assay type: ADME, organism-based; conditions: in vivo
[25] = Oral bioavailability in Cynomolgus monkey at 10 mg/kg measured up to 24 hrs by LC-MS analysis; assay type: ADME, organism-based, Macaca fascicularis; conditions: in vivo
[26] = Oral bioavailability in dog at 10 mg/kg measured up to 24 hrs by LC-MS analysis; assay type: ADME, organism-based, Canis lupus familiaris; conditions: in vivo
[27] = species on record: Homo sapiens; experiment: Selectivity ratio of IC50 for COX1 in human whole blood assessed as reduction in calcium ionophore-stimulated TXB2 production to IC50 for COX2 in human whole blood assessed as reduction in LPS stimulated PGE2 production; assay type: tissue-based
[28] = system: Mus musculus; experiment: Antitumor activity in C57BL/6J mouse model of spontaneous GI-tract tumor Apc-min assessed as reduction in total ileum polyp number at 30 to 300 mg/kg, po administered as suspension for 10 weeks; assay type: functional, organism-based; conditions: dose 30-300 mg/kg
[29] = system: Mus musculus; experiment: Antitumor activity in po dosed C57BL/6J mouse model of spontaneous GI-tract tumor Apc-min assessed as reduction in total ileum polyp area administered as suspension for 10 to 12 weeks; assay type: functional, organism-based; conditions: time 10-12 weeks
[30] = biological target: T3, Prostaglandin G/H synthase 2 (Homo sapiens) (UniProt P35354)
T3 sequence (whole entry): T1 sequence (P35354 whole entry)
Description: Protein occupancy at human recombinant COX-2 assessed as dissociation half life

[31] = in vivo; conditions: C57BL/6J, mouse, colon / portal vein plasma, po, 10 mg/kg
Description: Ratio of drug concentration in C57BL/6J mouse colon to portal vein plasma at 10 mg/kg, po measured after 4 hr by liquid chromatographic triple-quadrupole mass spectrometric method

T2 sequence (P23219 whole entry): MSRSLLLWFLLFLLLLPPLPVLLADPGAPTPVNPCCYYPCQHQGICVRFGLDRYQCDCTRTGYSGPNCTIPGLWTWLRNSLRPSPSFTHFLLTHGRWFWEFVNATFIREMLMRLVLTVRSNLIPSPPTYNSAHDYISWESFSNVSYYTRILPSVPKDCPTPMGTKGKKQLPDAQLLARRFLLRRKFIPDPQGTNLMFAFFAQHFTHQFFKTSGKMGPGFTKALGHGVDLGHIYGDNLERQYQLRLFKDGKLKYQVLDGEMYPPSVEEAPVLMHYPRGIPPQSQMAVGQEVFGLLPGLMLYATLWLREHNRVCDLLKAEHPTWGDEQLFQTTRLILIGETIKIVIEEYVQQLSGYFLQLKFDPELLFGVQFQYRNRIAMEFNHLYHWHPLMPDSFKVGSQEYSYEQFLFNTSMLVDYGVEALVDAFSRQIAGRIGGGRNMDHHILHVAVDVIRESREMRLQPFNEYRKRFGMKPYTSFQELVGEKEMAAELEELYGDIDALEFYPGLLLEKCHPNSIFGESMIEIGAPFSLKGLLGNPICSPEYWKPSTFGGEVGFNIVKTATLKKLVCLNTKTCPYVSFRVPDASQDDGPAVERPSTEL

`CCCOc1nc(OCC(C)(C)O)c(-c2ccc(S(C)(=O)=O)cc2)cc1CO` gave an IC50 [1] of 600 nM, an IC50 [2] greater than 50000 nM and an IC50 [3] of 840 nM. It also gave an IC50 [4] greater than 50000 nM, a half-life [5] greater than 184 min and a half-life [6] of 19.6 min. The half-life [7] was 3.1 min, the half-life [8] was 3 min and the clearance [9] was 92.7 mL/min/kg. It also gave a Vd [10] of 3.05 L/kg, a concentration at 4 h [11] of 5340 ng/g and a concentration at 4 h [12] of 5.7 ng/mL. The Kp at 4 h [13] was 1280, the Tmax [14] was 15 min and the Ki [15] was 114 nM. It also gave an IC50 [16] of 193000 nM, a fraction unbound [17] of 0.016 and a solubility thermodynamic [18] of 25 µM (≈ 10.2 µg/mL). The concentration at 4 h [19] was 98.6 ng/mL, the Activity [20] was 35.6% and the inhibition in vivo at 300 mg/kg [21] was 41.9%. For the same molecule, the Survival [22] was greater than 82 days, the bioavailability [23] was 4.25% and the bioavailability [24] was 2.3%. It also gave a bioavailability [25] of 20%, a bioavailability [26] of 79.5% and a Ratio IC50 [27] of 80. For the same molecule, the Activity [28] was “Active”, the Activity [29] was “Dose-Dependent Effect” and the T1/2 [30] was 534 min. For the same molecule, the Kp at 4 h [31] was 38.
